# Laboratory results taken from patent US11612601B1, “Targeting epidermal growth factor to treat vascular calcification” (THE FLORIDA INTERNATIONAL UNIVERSITY BOARD OF TRUSTEES, priority 2022, dated 2023).
# System: Osteoblasts (hFOB 1.19)
# Experiment: Matrix vesicles from osteoblast cultures: CAV1 and TNAP activity
# Assay type: cell-based, human
# Details: OS + 2.5 μM
# Description: Osteoblasts (from human fetus, hFOB 1.19, ATCC, CRL-11372) were cultured and grown in DMEM containing 10% v/v bovine calf serum and 1% v/v penicillin-streptomycin. Osteoblasts (passage 4-6) were harvested using 0.25% trypsin-EDTA solution (Caisson Labs, TRL01), seeded with a density of 5,200 cell.cm^−2, and incubated for 24 hours at 37° C. and 5% CO2 with controlled humidity. The cells were treated in three groups of control, OS, and OS supplemented with tyrphostin AG1478 (2.5 μM) for 21 days and media changed every three days. […] Similar to the VSMC experiments, EV-free media were added to the cultures on days 6, 13, and 20, and collected 24 hours later on days 7, 14, and 21. Collected media were centrifuged at 1,000×g for 5 min to remove cell debris. EVs were isolated using the ultracentrifugation at 100,000×g for 1 hour.
# For EV TNAP activity measurement, after ultracentrifugation at 100,000×g for 1 hour, the pellets were re-suspended in 120 μL buffer assay. […]
# To quantify the total protein, the membranes were stained using 2% w/v Ponceau stain (Alfa Aesar, AAJ6074409) for 20 min, followed by one wash with 5% acetic acid and milliQ water for 5 min. After imaging, the intensity of each lane was measured in ImageJ for total protein normalization. […] The protein bands were visualized with Odyssey CLx scanner (Li-Cor), and quantified using Image Studio Lite software (Li-Cor).
smiles,measurement,setting,value
"COc1cc2ncnc(Nc3cccc(Cl)c3)c2cc1OC [AG1478, tyrphostin AG1478]",CAV1 protein on matrix vesicles released by osteoblasts,"compared to control, days 14 and 21",lower levels
same,TNAP activity of matrix vesicles released by osteoblasts,"days 7, 14, 21",significantly increased
